Patent US6630313B2, “Phosphatidyl serine receptors and uses thereof” (National Jewish Medical and Research Center, priority 2000, dated 2003)

Columns and labels:
[1] = tested on: Jurkat T cells transfected with the candidate PSR; assay: Binding and phagocytosis of symmetric red cell ghosts; type: cell-based, human; conditions: for binding of symmetric red cell ghosts: FIG. 5; for binding and phagocytosis of symmetric red cell ghosts: stably transfected Jurkat T cells, FIG. 5 legend
Excerpt: A human EST clone (Accession No. R24727) containing the full length gene was obtained through the IMAGE Consortium via ATCC (Manassas, Va.). The insert was subcloned into pcDNA 3.1/neo at Hind III/Not I sites (Invitrogen, Carlsbad, Calif.). M12.C3 cells were transfected in OptiMEM I medium using Lipofectamine Plus (both from GibcoBRL Life Science Technologies, Grand Island, N.Y.). Jurkat T cells were transfected in OptiMEM I medium using DMRIE C Jurkat T cells were stimulated with PHA alone (1 μg/ml) or with PMA (1.6 nM) and PHA to induce expression of the receptor. After 48 hrs, the cells were analyzed for expression of the PS receptor using mAb 217 and flow cytometry. For stable transfections, Jurkat T cells were selected in G418 (1 mg/ml). Surface expression of the receptor was induced by treatment of the stably transfected cells with 160 nM PMA in the absence of G418 for 48 hours. The candidate PSR was also inserted into pRc/RSV (PharMingen, San Diego, Calif.), or pUP (provided by Brian Schaefer), and transfected into Jurkat T cells or M12.C3 cells by electroporation.
Human red blood cells were lysed in 1:50 PBS containing 1 mM CaCl2 on ice for one hour; they were resealed at 37° C. for 30 minutes by addition of 5×PBS. Exposure of phosphatidylserine was confirmed by binding of annexin-FITC, assessed by flow cytometry.

[2] = tested on: HMDM; assay: Uptake of apoptotic cells by HMDM; type: cell-based, human; conditions: control agents
Method: Human monocytes were obtained from normal donors, and cultured in X-Vivo 10 (BioWhitaker) containing 10% human serum. The differentiated macrophages (HMDM) were used at 7 days of culture. Mouse bone-marrow derived macrophages were derived by culturing bone marrow cells in M-CSF for 5-7 days.
Macrophages, fibroblasts, or epithelial cells were preincubated with 100 μM liposomes (containing 50:50 molar ratio of PS:PC or PI:PC), 1 mM RGDS or RGES, undiluted hybridoma supernatants containing mAb 217 or mAb 284 (for HMDM) or 100 μg/ml purified mAb 217, or 100 μg/ml isotype controls for 30 minutes prior to adding apoptotic Jurkat T cells at ratio of 5:1 target:phagocyte. Apoptosis was induced in Jurkat T cell by UV irradiation as described (Fadok et al., J Clin Invest 101:890-898 (1998)). THP-1 cells were stimulatedwith PMA (160 nM) for 72 hours to induce a macrophage phenotype, the ability to adhere, and the ability to take up apoptotic cells. After 1 hr, the phagocytes were washed and fixed for light microscopic evaluation of uptake. […] Aliquots were removed and assessed for binding and phagocytosis by light microscopy as described (Fadok et al., J Immunol 148:2207-2216 (1992); Fadok et al., J Immunol 149:4029-4035 (1992); Fadok et al., J Immunol 151:4274-4285 (1993); Fadok et al., J Immunol 161:6250-6257 (1998)). […]

Molecule | binding of symmetric red cell ghosts [1] | binding and phagocytosis of symmetric red cell ghosts [1] | effect on uptake of apoptotic cells by HMDM [2]
N[C@@H](COP(=O)(O)O)C(=O)O [phospho-L-serine] | inhibited | inhibited stereospecifically | 
N[C@H](COP(=O)(O)O)C(=O)O [phospho-D-serine] | not | not | 
RGES |  |  | no effect
